The test system of assay [1] is Trichomonas vaginalis. Nature of the assay: Antimicrobial activity against clinical isolate of Trichomonas vaginalis. The format is functional.
Assay [2] relates to Trichomonas vaginalis. As to the kind of experiment: Antimicrobial activity against Trichomonas vaginalis ATCC 25258. The format is functional.
Assay [3] concerns HeLa. Nature of the assay: Cytotoxicity against human HeLa cells by MTT assay. The class given is cell-based. (In general: Tetrazolium dyes change colour on reduction, which living cells bring about.)
Assay [4] in a line: Antimicrobial activity against Lactobacillus jensenii.
The subject of assay [5] is Spermatozoa. As to the kind of experiment: Spermicidal activity against human spermatozoa at 10 mg/ml by modified sander-cramer assay. The class given is functional.

≈ marks a conversion by molar mass, not a printed value. Calls of active or inactive are those of the source. The rule behind the calls is not given here.

Drawing on ChEMBL document CHEMBL2069192, “Synthesis of 3-(1-alkyl/aminoalkyl-3-vinyl-piperidin-4-yl)-1-(quinolin-4-yl)-propan-1-ones and their 2-methylene derivatives as potential spermicidal and microbicidal agents” (Bioorg Med Chem Lett, 2012), this text covers MIC, EC50 and Activity for 14 molecules.

Broadly, the MIC is the lowest concentration found to suppress growth. As a reminder, the EC50 is the concentration needed to bring the measured effect to its halfway point. Read a high EC50 as a need for much substance. Regarding `C=C[C@H]1CN(CCCCC)CC[C@H]1CCC(=O)c1ccnc2ccccc12.O=C(O)C(O)C(O)C(=O)O`, the MIC in assay [1] is 1.5 µg/mL; in assay [2], 3.12 µg/mL. Moreover, the EC50 stood at 19.1 µg/mL in assay [3] and 76.3 µg/mL in assay [4].

`C=C[C@H]1CN(CCCCC)CC[C@H]1CC(=C)C(=O)c1ccnc2ccccc12.O=C(O)C(O)C(O)C(=O)O`: the figures for the MIC in assay [1] and in assay [2] were 12.5 µg/mL and 25 µg/mL, respectively. In addition, the EC50 in assay [3] worked out at 104 µg/mL; in assay [4], 130 µg/mL.

Take `C=C[C@H]1CN(CCCCCCCC)CC[C@H]1CCC(=O)c1ccnc2ccccc12`: the outcome in assay [5] was inactive.

`C=C[C@H]1CN(CCCCCC)CC[C@H]1CCC(=O)c1ccnc2ccccc12`: in assay [5], the result was inactive.

Regarding `C=C[C@H]1CN(CC)CC[C@H]1CCC(=O)c1ccnc2ccccc12`, the outcome in assay [5] was inactive.

Turning to `CCCCCCCCCc1ccc(OCCOCCOCCOCCOCCOCCOCCOCCOCCO)cc1` [NONOXYNOL 9], the MIC in assay [1] and in assay [2] was 37.5 µg/mL (≈ 60.8 µM) each time. Besides, the EC50 was determined as 33.2 µg/mL (≈ 53.8 µM) in assay [3] and 32.5 µg/mL (≈ 52.7 µM) in assay [4].

Consider `C=C[C@H]1CN(CC(C)C)CC[C@H]1CCC(=O)c1ccnc2ccccc12`, for which, in assay [5], the result was inactive.

`Cc1ncc([N+](=O)[O-])n1CCO` [METRONIDAZOLE]: the outcome in assay [5] was inactive. Also, the figures for the MIC in assay [1] and in assay [2] were 2 µg/mL (≈ 11.7 µM) and 62.5 µg/mL (≈ 365 µM), respectively. The EC50 in assay [3] and in assay [4] was greater than 1000 µg/mL each time.

Turning to `C=C[C@H]1CN2CC[C@H]1C[C@@H]2[C@@H](O)c1ccnc2ccccc12` [CINCHONINE], the MIC result in assay [1] and in assay [2] was “inactive” each time. Also, the EC50 came to 697 µg/mL (≈ 2370 µM) in assay [3] and 428 µg/mL (≈ 1450 µM) in assay [4].

For `C=C[C@H]1CNCC[C@H]1CCC(=O)c1ccnc2ccccc12` [CINCHOTOXIN], the MIC entry in assay [1] and in assay [2] was “inactive” throughout. Moreover, the EC50 in assay [3] is greater than 1000 µg/mL; in assay [4] it was 449 µg/mL (≈ 1530 µM).

With `C=C[C@H]1CN(CCC)CC[C@H]1CCC(=O)c1ccnc2ccccc12.O=C(O)C(O)C(O)C(=O)O`, the results for the MIC in assay [1] and in assay [2] were 25 µg/mL and 100 µg/mL, respectively. Also, the results for the EC50 in assay [3] and in assay [4] were 276 µg/mL and 526 µg/mL, respectively.

Regarding `C=C[C@H]1CN(CCCC)CC[C@H]1CC(=C)C(=O)c1ccnc2ccccc12.O=C(O)C(O)C(O)C(=O)O`, the MIC in assay [1] is 3.12 µg/mL; in assay [2] it was 50 µg/mL. Besides, the results for the EC50 in assay [3] and in assay [4] were 138 µg/mL and 321 µg/mL, respectively.

Turning to `C=C[C@H]1CN(CC)CC[C@H]1CC(=C)C(=O)c1ccnc2ccccc12.O=C(O)C(O)C(O)C(=O)O`, the minimum inhibitory concentration (MIC) in assay [1] is 12.5 µg/mL; in assay [2], 50 µg/mL. Further, the EC50 came to 133 µg/mL in assay [3] and 685 µg/mL in assay [4].

For `C=C[C@H]1CN(CCCC)CC[C@H]1CCC(=O)c1ccnc2ccccc12`, the outcome in assay [5] was inactive.
